One assay concerns the target T1, human B1R (Homo sapiens, UniProt P46663).
T1 construct: expressed in transfected cells; host or cells: CHO K1 cells (Chinese hamster ovary), stably transfected
T1 sequence (P46663 1-353): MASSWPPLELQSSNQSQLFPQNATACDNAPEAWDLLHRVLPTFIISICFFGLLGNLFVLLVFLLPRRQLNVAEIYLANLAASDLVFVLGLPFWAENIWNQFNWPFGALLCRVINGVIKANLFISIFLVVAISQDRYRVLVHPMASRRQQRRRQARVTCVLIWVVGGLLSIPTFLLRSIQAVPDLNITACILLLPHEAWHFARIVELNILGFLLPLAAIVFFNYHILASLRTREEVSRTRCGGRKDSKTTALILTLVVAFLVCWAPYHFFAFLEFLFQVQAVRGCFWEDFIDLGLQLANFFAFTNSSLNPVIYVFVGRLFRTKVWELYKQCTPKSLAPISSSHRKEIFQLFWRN
The assay can be described thus: FLIPR Ca2+ functional assay, B1R antagonism, human B1R in CHO K1 cells. The assay is classed as cell-based. The note with it: test substance 10 μM; hB1R CHO K1 cells; agonist Lys-Des-Arg9 bradykinin at EC80; % of maximum achievable inhibition. In short, it runs like this:
(§1)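 IC50 values come from varied compound concentrations applied 10-20 min before an EC80 agonist challenge, with Des-Arg9 bradykinin for rat and Lys-Des-Arg9 bradykinin for human receptor. Ca2+ influx in Fluo-4-loaded CHO K1 transfectants was measured by FLIPR peak fluorescence. Data are % inhibition vs maximum, n=2-3, N>=2.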

The next assay concerns the target T2, B1R of the rat (Rattus norvegicus, UniProt P97583).
T2 construct: expressed in transfected cells; host or cells: CHO K1 cells (Chinese hamster ovary), stably transfected
T2 sequence (P97583 1-337): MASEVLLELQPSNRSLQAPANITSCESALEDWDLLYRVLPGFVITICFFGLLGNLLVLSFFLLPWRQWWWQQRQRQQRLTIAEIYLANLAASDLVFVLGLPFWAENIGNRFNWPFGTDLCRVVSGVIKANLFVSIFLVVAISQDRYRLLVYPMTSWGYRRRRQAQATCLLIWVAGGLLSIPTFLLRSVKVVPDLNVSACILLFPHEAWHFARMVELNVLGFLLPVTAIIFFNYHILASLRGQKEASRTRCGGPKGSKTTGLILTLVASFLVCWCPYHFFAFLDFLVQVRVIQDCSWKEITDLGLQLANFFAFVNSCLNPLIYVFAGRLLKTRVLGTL
Description: FLIPR Ca2+ functional assay, B1R antagonism, rat B1R in CHO K1 cells. It counts as cell-based. The note with it: test substance 10 μM; rB1R CHO K1 cells; agonist Des-Arg9 bradykinin at EC80; % of maximum achievable inhibition. The essentials: as §1

For orientation: inhibition means the change of the read-out against control, counted positive when it falls. As for `CC(C)(C)NCc1ccc2c(c1)CCCC2NC(=O)CC1c2cccn2CCN1S(=O)(=O)c1cccc(C(F)(F)F)c1` (stereo not drawn) [Example 82, N-[6-[(tert-Butylamino)-methyl]-1,2,3,4-tetrahydro-naphthalen-1-yl]-2-[2-[[3-(trifluoromethyl)phenyl]sulfonyl]-1,2,3,4-tetrahydro-pyrrolo[1,2-a]pyrazin-1-yl]-acetamide], the figures for the inhibition at 10 µM on human B1R and at B1R of the rat were 99.9% and 101%, respectively.
The matching figures for `O=C(CC1c2cccn2CCN1S(=O)(=O)c1cccc(C(F)(F)F)c1)NC1CCc2cc(CNCc3ccccc3)ccc2C1` (stereo not drawn) [Example 83, N-[6-[(Benzylamino)-methyl]-1,2,3,4-tetrahydro-naphthalen-2-yl]-2-[2-[[3-(trifluoromethyl)phenyl]sulfonyl]-1,2,3,4-tetrahydro-pyrrolo[1,2-a]pyrazin-1-yl]-acetamide]: 99.3% and 101%.
Take `O=C(CC1c2cccn2CCN1S(=O)(=O)c1cccc(C(F)(F)F)c1)NC1CCc2cc(CN3CCCC3)ccc2C1` (stereo not drawn) [Example 84, N-[6-(Pyrrolidin-1-yl-methyl)-1,2,3,4-tetrahydro-naphthalen-2-yl]-2-[2-[[3-(trifluoromethyl)phenyl]sulfonyl]-1,2,3,4-tetrahydro-pyrrolo[1,2-a]pyrazin-1-yl]-acetamide]: the inhibition at 10 µM at human B1R was 99.8%; at B1R of the rat it was 100%.
The matching figures for `Cc1ccc(S(=O)(=O)N2CCn3cccc3C2CC(=O)NC2CCCc3cc(CN4CCCC4)ccc32)cc1` (stereo not drawn) [Example 85, 2-[2-(p-Tolylsulfonyl)-1,2,3,4-tetrahydro-pyrrolo[1,2-a]pyrazin-1-yl]-N-[6-(pyrrolidin-1-yl-methyl)-1,2,3,4-tetrahydro-naphthalen-1-yl]-acetamide]: 99.9% and 101%.
As for `O=C(CC1c2cccn2CCN1S(=O)(=O)c1cccc(C(F)(F)F)c1)NC1CCCc2cc(CN3CCCC3)ccc21` (stereo not drawn) [Example 86, N-[6-(Pyrrolidin-1-yl-methyl)-1,2,3,4-tetrahydro-naphthalen-1-yl]-2-[2-[[3-(trifluoromethyl)phenyl]sulfonyl]-1,2,3,4-tetrahydro-pyrrolo[1,2-a]pyrazin-1-yl]-acetamide], the inhibition at 10 µM at human B1R stood at 99.8%; at B1R of the rat, 97.5%.
The matching figures for `Cc1ccc(S(=O)(=O)N2CCn3cccc3C2CC(=O)NC2CCc3cc(CN4CCOCC4)ccc3C2)cc1` (stereo not drawn) [Example 87, N-[6-(Morpholin-4-yl-methyl)-1,2,3,4-tetrahydro-naphthalen-2-yl]-2-[2-(p-tolylsulfonyl)-1,2,3,4-tetrahydro-pyrrolo[1,2-a]pyrazin-1-yl]-acetamide]: 99.4% and 102%.
For `O=C(CC1c2cccn2CCN1S(=O)(=O)c1cccc(C(F)(F)F)c1)NC1CCc2cc(CN3C4CCCC3CC4)ccc2C1` (stereo not drawn) [Example 88, N-[6-(8-Azabicyclo[3.2.1]octan-8-yl-methyl)-1,2,3,4-tetrahydro-naphthalen-2-yl]-2-[2-[[3-(trifluoromethyl)phenyl]sulfonyl]-1,2,3,4-tetrahydro-pyrrolo[1,2-a]pyrazin-1-yl]-acetamide], in that order: 99.9% and 96.5%.
The matching figures for `O=C(CC1c2cccn2CCN1S(=O)(=O)c1cccc(C(F)(F)F)c1)NC1CCCc2cc(CN3CCCCC3)ccc21` (stereo not drawn) [Example 89, N-[6-(Piperidin-1-yl-methyl)-1,2,3,4-tetrahydro-naphthalen-1-yl]-2-[2-[[3-(trifluoromethyl)phenyl]sulfonyl]-1,2,3,4-tetrahydro-pyrrolo[1,2-a]pyrazin-1-yl]-acetamide]: 100% and 99.1%.
With `O=C(CC1c2cccn2CCN1S(=O)(=O)c1cccc(C(F)(F)F)c1)NC1CCCc2cc(CN3CCCc4ccccc43)ccc21` (stereo not drawn) [Example 90, N-[6-(1,2,3,4-Tetrahydro-quinolin-1-yl-methyl)-1,2,3,4-tetrahydro-naphthalen-1-yl]-2-[2-[[3-(trifluoromethyl)phenyl]sulfonyl]-1,2,3,4-tetrahydro-pyrrolo[1,2-a]pyrazin-1-yl]-acetamide], the inhibition at 10 µM on human B1R was found to be 54.6%; at B1R of the rat it was 51.4%.
The matching figures for `Cc1ccc(S(=O)(=O)N2CCn3cccc3C2CC(=O)NC2CCCc3cc(CN4CCCC4)ccc32)cc1Cl` (stereo not drawn) [Example 91, 2-[2-[(3-Chloro-4-methyl-phenyl)sulfonyl]-1,2,3,4-tetrahydro-pyrrolo[1,2-a]pyrazin-1-yl]-N-[6-(pyrrolidin-1-yl-methyl)-1,2,3,4-tetrahydro-naphthalen-1-yl]-acetamide]: 99.9% and 99%.
The matching figures for `CN(C)Cc1ccc2c(c1)CCC(NC(=O)CC1c3cccn3CCN1S(=O)(=O)c1cccc(C(F)(F)F)c1)C2` (stereo not drawn) [Example 92, N-[6-(Dimethylaminomethyl)-1,2,3,4-tetrahydro-naphthalen-2-yl]-2-[2-[[3-(trifluoromethyl)phenyl]sulfonyl]-1,2,3,4-tetrahydro-pyrrolo[1,2-a]pyrazin-1-yl]-acetamide]: 99.9% and 102%.
On to `Cc1ccc(S(=O)(=O)N2CCn3cccc3C2CC(=O)NC2CCc3cc(CNCc4ccccc4)ccc3C2)cc1` (stereo not drawn) [Example 93, N-[6-[(Benzylamino)-methyl]-1,2,3,4-tetrahydro-naphthalen-2-yl]-2-[2-(p-tolylsulfonyl)-1,2,3,4-tetrahydro-pyrrolo[1,2-a]pyrazin-1-yl]-acetamide], for which the inhibition at 10 µM was 99.9% at human B1R and 96.8% on B1R of the rat.
The matching figures for `COc1ccc2cc(S(=O)(=O)N3CCn4cccc4C3CC(=O)NC3CCc4cc(CN5CCCC5)ccc4C3)ccc2c1` (stereo not drawn) [Example 94, 2-[2-[(6-Methoxy-naphthalen-2-yl)sulfonyl]-1,2,3,4-tetrahydro-pyrrolo[1,2-a]pyrazin-1-yl]-N-[6-(pyrrolidin-1-yl-methyl)-1,2,3,4-tetrahydro-naphthalen-2-yl]-acetamide]: 99.9% and 101%.
Consider `COc1ccc2cc(S(=O)(=O)N3CCn4cccc4C3CC(=O)NC3CCCc4cc(CN5C6CCCC5CC6)ccc43)ccc2c1` (stereo not drawn) [Example 95, N-[6-(8-Azabicyclo[3.2.1]octan-8-yl-methyl)-1,2,3,4-tetrahydro-naphthalen-1-yl]-2-[2-[(6-methoxy-naphthalen-2-yl)sulfonyl]-1,2,3,4-tetrahydro-pyrrolo[1,2-a]pyrazin-1-yl]-acetamide], for which the figures for the inhibition at 10 µM on human B1R and on B1R of the rat were 99.7% and 99.8%, respectively.
In the case of `COc1ccc2cc(S(=O)(=O)N3CCn4cccc4C3CC(=O)NC3CCc4cc(CN(C)C)ccc4C3)ccc2c1` (stereo not drawn) [Example 96, N-[6-(Dimethylaminomethyl)-1,2,3,4-tetrahydro-naphthalen-2-yl]-2-[2-[(6-methoxy-naphthalen-2-yl)sulfonyl]-1,2,3,4-tetrahydro-pyrrolo[1,2-a]pyrazin-1-yl]-acetamide], the figures for the inhibition at 10 µM on human B1R and at B1R of the rat were 99.9% and 102%, respectively.
For `COc1ccc2cc(S(=O)(=O)N3CCn4cccc4C3CC(=O)NC3CCc4cc(CN(C)C(C)(C)C)ccc4C3)ccc2c1` (stereo not drawn) [Example 97, N-[6-[(tert-Butyl-methyl-amino)-methyl]-1,2,3,4-tetrahydro-naphthalen-2-yl]-2-[2-[(6-methoxy-naphthalen-2-yl)sulfonyl]-1,2,3,4-tetrahydro-pyrrolo[1,2-a]pyrazin-1-yl]-acetamide], in that order: 99.8% and 102%.
`COc1ccc2cc(S(=O)(=O)N3CCn4cccc4C3CC(=O)NC3CCCc4cc(CN5CCCC5)ccc43)ccc2c1` (stereo not drawn) [Example 98, 2-[2-[(6-Methoxy-naphthalen-2-yl)sulfonyl]-1,2,3,4-tetrahydro-pyrrolo[1,2-a]pyrazin-1-yl]-N-[6-(pyrrolidin-1-yl-methyl)-1,2,3,4-tetrahydro-naphthalen-1-yl]-acetamide]: the inhibition at 10 µM came to 99.9% on human B1R and 99.7% at B1R of the rat.
Regarding `COc1ccc2cc(S(=O)(=O)N3CCn4cccc4C3CC(=O)NC3CCc4cc(CN5CCN(C)CC5)ccc4C3)ccc2c1` (stereo not drawn) [Example 99, 2-[2-[(6-Methoxy-naphthalen-2-yl)sulfonyl]-1,2,3,4-tetrahydro-pyrrolo[1,2-a]pyrazin-1-yl]-N-[6-[(4-methyl-piperazin-1-yl)-methyl]-1,2,3,4-tetrahydro-naphthalen-2-yl]-acetamide], the inhibition at 10 µM at human B1R came out at 99.8%; at B1R of the rat it was 101%.

(Values after US8158628B2, “Sulfonylated 1,2,3,4-tetrahydropyrrolo[1,2-a]pyrazine compounds and their use as pharmaceuticals” (Gruenenthal GmbH, priority 2009, dated 2012).)
